Laboratory results as given in patent US20040014772A1, “Compositions and methods for treating glomerular disorders” (priority 2000, published 2004).

Tests used:
[1] = Renal function (serum creatinine, BUN) in PAN-treated rats; type: in vivo, rat; conditions: PAN-treated rats with or without PIP or CM
Method: BUN and creatinine were measured by using assay kits from Sigma.

[2] = test system: H2O2 in the glomeruli; test: Ultrastructural localization of H2O2 (cerium histochemistry) in rat kidney; type: in vivo; conditions: rats
Method: The principle of this method is that cerium ions combine with H2O2 generated by the cell that results in a precipitate with properties suitable for ultrastructural histochemistry. Localization of H2O2 generation was performed following the procedure of Neale et al (PNAS, USA, 1993, 90:3645-3649.). Following PAN treatment, the left kidney was perfused at 37° C. by retrograde aortic perfusion with 4 ml of each of the following solutions: a) PBS; b) 20 mmol Tris-maleate buffer (pH 7.2) containing 7% sucrose (TMS); c) TMS containing 1 mmol aminotriazole; d) TMS containing 10 mmol aminotriazole, 1 mmol cerium chloride heptahydrate and 2.56 mmol B-NADPH; and e) TMS followed by 10 mmol of 2.5% glutaraldehyde as the fixative. Pieces of the kidney were fixed further for 2 hours in glutaraldehyde and embedded in Epon. Sections from the tissue block were routinely stained with 4% aqueous uranyl acetate and alkaline lead, and examined under a Leo 906 electron microscope.

[3] = test system: heme oxidase (HO-1); test: HO-1 induction in kidney of PAN-treated rats (immunohistochemistry, western blot, RT-PCR); type: in vivo, rat
Description: The microsome fraction obtained was subjected to SDS-page electrophoresis in 1 mm slab gels. The separated forms were transferred from gel to a nitrocellulose sheet using a Mini Trans-blot electroblotting unit. The primary antibodies were monoclonal anti-HO-1 (OSA-111, StressGen, Victoria, BC, Canada) and monoclonal anti-CYP2B1 (PM25, Oxford Biomedical Research, Oxford, Mich., USA). Subsequent to primary and secondary antibody (peroxidase-labeled) treatment, the blots were visualized by enhanced chemiluminescence method.
Kidney cortical sections were fixed in 10% buffered formalin for 6 hours and embedded in paraffin. After deparaffinization and antigen retrieval, the sections were immunolabeled and visualized according to an avidin-biotin complex (ABC) method. The primary antibody for detection of ferritin was polyclonal anti-Ferritin (L subunit) antibody (605022; Boehringer Mannheim Corp., Indianapolis, Ind., USA).
RNA was isolated from the kidney cortex using TRIzol Reagant (Gibco, BRL, Gaithersburg, Md., USA). Revers transcription of […] of total RNA was carried out using Moloney murine leukemia virus reverse transcriptase (Gibco, BRL). The resulting first-strand cDNA preparations were used as templates for PCR. HO-1 primer described by Paschen et al (Neurosci Lett, 1994, 180:5-8.) were purchased from Gibco, BRL. The sense primer was: %′-[…]-3′, and the antisense 5′-[…]-3′. […]

CN(C)c1ncnc2c1ncn2[C@@H]1O[C@H](CO)[C@@H](N)[C@H]1O [PAN, puromycin aminonucleoside]
serum creatinine ([1]; control 0.72±0.2): 0.85 ± 0.2 mg/dL | BUN ([1]; control 21±3, P<0.05 vs control): 33 ± 4 mg/dL | cerium-H2O2 reaction product in the glomerular basement membrane ([2]; 1 hour and 6 hours after PAN injection): diffusely distributed throughout the glomerular basement membrane | foot processes (electron microscopy) ([2]; fourth day after PAN, onset of proteinuria): marked fusion of the foot processes | HO-1 induction in the glomeruli and tubules ([3]; PAN-treated rats): marked induction | HO-1 mRNA expression in the kidney ([3]; RT-PCR vs GAPDH, one hour to day 4 after PAN): significantly increase
